Assay results reported in article PMC3198688, “Design and development of a peptide-based adiponectin receptor agonist for cancer treatment” (BMC Biotechnology, 2011).
Where two headings read alike, the source gives them in different places. Square brackets hold non-standard residues; d marks the D form. Peptide text beside a SMILES is read from it. Nva = CCC[C@H](N)C(=O)O

Key:
[1] = test system: MCF-7 breast cancer cells; experiment: Growth inhibition (cytostatic) screening in MCF-7 cells; format: cell-based, human
Description: Biological activity of the peptides was first assessed using MCF-7 breast cancer cells that are known to express AdipoR1 [38]. MCF-7 cell line was obtained from ATCC (Manassas, VA) and routinely grown in DMEM:F12 plus 5% calf serum (Cellgro Mediatech, Manassas, VA) at 37°C, 5% CO2. For screening experiments, MCF-7 cells were plated in 24-well plates at the concentration of 30,000 cells/well. After 12 h of culture in the growth medium, the cells were synchronized in serum-free medium (SFM) (DMEM:F12 supplemented with […] bovine serum albumin, 1 mM FeSO4 and 2 mM L-glutamine) for 24 h, and then shifted back to the full growth medium containing either gAd (Phoenix Secretomics, Burlingame, CA) at 50 ng/mL, individual peptides, or no test compounds. After 24 h, the cells were counted under the microscope with trypan-blue exclusion. Each experiment was performed in triplicate and repeated at least three times.
The effects of the lead active peptide 355 ([…]) on cell proliferation were tested in breast cancer cell lines (MCF-7, MDA-MB-231) and in glioblastoma cells (LN18), all obtained from ATCC and routinely cultured as described previously. The peptide was tested at 10 pM-100 μM concentrations under conditions described above under peptide screening.

[2] = target: T1, AdipoR1 extracellular loops (Homo sapiens, UniProt Q96A54); experiment: Screening of AdipoR1/peptide binding (ELISA plate, biotin-labeled loop peptides); settings: preliminary, qualitative study; biotin-labeled loop fragments; data not shown
T1 construct: biotin-labeled linear synthetic models of the 4 extracellular loops of AdipoR1; made in house; host or cells: chemical solid-phase peptide synthesis (Fmoc), no expression host
Excerpt: (§1) The 66 unmodified adiponectin array peptides were individually dried down to wells of an ELISA plate, and tested for binding to biotin-labeled linear synthetic models of the 4 extracellular loops of AdipoR1. The receptor/peptide interaction was detected by horseradish-peroxidase conjugated streptavidin.

[3] = test system: AdipoR1 extracellular loops; experiment: as above; settings: preliminary, qualitative study; biotin-labeled loop fragments; data not shown
Excerpt: as §1

[4] = In vivo toxicity in CBA/J mice; settings: for Kidney weight / Liver weight / Spleen weight: CBA/J mice, day 5
Description: On day 5, the mice were sacrificed by CO2 inhalation. The potential peptide elimination organs: the livers, spleens and kidneys were removed and weighed.

[5] = Peptide stability in whole mouse blood; format: in vitro ADME
Description: Sixty μg of ADP 355 were dissolved in 100 μL water, and 10 μL aliquots were mixed with 100 μL of freshly drawn mouse blood. After 30 min of incubation at 37°C, blood cells were centrifuged at 10,000 × g. Fifty μL serum was mixed with 50 μL phosphate buffered saline pH 6.8 (PBS), and serum proteins were precipitated by addition of 45 μL aqueous 15% trichloroacetic acid (TCA) for 10 min at 4°C. After centrifugation at 12,000 × g, the supernatant was neutralized with 0.1 M aqueous sodium hydroxide and 0.5 μL of this solution was mixed with 0.5 μL α-cyano-4-hydroxycinnamic acid (4 mg/mL in 60% aqueous acetonitrile containing 0.1% TFA) as matrix on a sample plate. Analysis was performed using a MALDI time-of-flight tandem mass spectrometer (MALDI-TOF/TOF-MS, 4700 proteomic analyzer, Applied Biosystems, Weiterstadt, Germany). Additionally, the neutralized supernatant was loaded on a Jupiter C18 RP-HPLC column (4.6 mm internal diameter, 150 mm length, 5 μm particle size, 30 nm pore size) previously calibrated with known amounts of ADP 355 dissolved in PBS. Absorbance was measured at 214 nm.

For CC[C@H](C)[C@H](NC(=O)[C@@H](N)CC(N)=O)C(=O)N1CCC[C@H]1C(=O)NCC(=O)N[C@@H](CC(C)C)C(=O)N[C@@H](Cc1ccc(O)cc1)C(=O)N[C@@H](Cc1ccc(O)cc1)C(=O)N[C@@H](Cc1ccccc1)C(=O)N[C@@H](C)C(=O)N[C@@H](Cc1ccc(O)cc1)C(N)=O [ADP 25, H-Asn-Ile-Pro-Gly-Leu-Tyr-Tyr-Phe-Ala-Tyr-NH2] (H-NIPGLYYFAY-NH2), the “biological activity in cell growth inhibition assays” value [1] was “fully active”, the “binding to the first extracellular loop of AdipoR1” value [2] was “bound the first extracellular loop of AdipoR1” and the “binding to the other extracellular loops of AdipoR1” value [3] was “not other loops”.

For CCC[C@H](NC(=O)[C@@H]1CCCN1C(=O)[C@@H](NC(=O)[C@H](N)CC(N)=O)[C@@H](C)CC)C(=O)N[C@@H](CC(C)C)C(=O)N[C@@H](Cc1ccc(O)cc1)C(=O)N[C@H](CO)C(=O)N[C@@H](Cc1ccccc1)C(=O)N[C@@H](C)C(=O)N[C@H](CO)C(N)=O [ADP 355, H-DAsn-Ile-Pro-Nva-Leu-Tyr-DSer-Phe-Ala-DSer-NH2] (H-[dN]IP[Nva]LY[dS]FA[dS]-NH2), the “Kidney weight” value ([4]; 5 mg/kg bolus ip) was 0.30 g, the “Liver weight” value ([4]; 5 mg/kg bolus ip) was 1.02 g and the “Spleen weight” value ([4]; 5 mg/kg bolus ip) was 0.07 g. The “Kidney weight” value ([4]; 10 mg/kg bolus ip) was 0.29 g, the “Liver weight” value ([4]; 10 mg/kg bolus ip) was 1.09 g and the “Spleen weight” value ([4]; 10 mg/kg bolus ip) was 0.06 g. For the same compound, the “Kidney weight” value ([4]; 25 mg/kg bolus ip) was 0.35 g, the “Liver weight” value ([4]; 25 mg/kg bolus ip) was 1.24 g and the “Spleen weight” value ([4]; 25 mg/kg bolus ip) was 0.07 g. The “Kidney weight” value ([4]; 50 mg/kg bolus ip) was 0.31 g, the “Liver weight” value ([4]; 50 mg/kg bolus ip) was 1.07 g and the “Spleen weight” value ([4]; 50 mg/kg bolus ip) was 0.07 g. For the same compound, the “signs of systemic toxicity (tremor, head tilt, reduced activity and squinting)” value ([4]; healthy CBA/J mice, bolus ip up to 50 mg/kg, observed for 4 days) was “no signs of systemic toxicity”, the “stability in whole mouse blood after 30 min” value ([5]; freshly drawn whole mouse blood, 37°C, 30 min, 10 μL of 60 μg/100 μL peptide in 100 μL blood, TCA precipitation, MALDI-TOF/TOF-MS and C18 RP-HPLC (214 nm)) was “without noticeable degradation” and the “stability in mouse blood or serum” value ([5]; mouse blood or serum, 37°C (abstract)) was “at least 30 min”.

For CC(C)C[C@H](NC(=O)CNC(=O)[C@@H]1CCCN1)C(=O)N[C@@H](Cc1ccc(O)cc1)C(=O)N[C@@H](Cc1ccc(O)cc1)C(=O)N[C@@H](Cc1ccccc1)C(N)=O [Middle 6 of 25, H-Pro-Gly-Leu-Tyr-Tyr-Phe -NH2] (H-PGLYYF-NH2), the “biological activity in cell growth inhibition assays” value [1] was “inactive” and the “biological activity in cell growth inhibition assays” value ([1]; listed as fragment 157-162) was “did not exhibit any biological activity”.
